# Measured values taken from ChEMBL document CHEMBL2390902, “Discovery of 1-(1,3,5-triazin-2-yl)piperidine-4-carboxamides as inhibitors of soluble epoxide hydrolase” (Bioorg Med Chem Lett, 2013).
# Tests used:
# [1] = biological target: Adrenergic receptor alpha-2 (Homo sapiens) (UniProt P08913+P18825+P18089); assay: Inhibition of human alpha2 receptor at 1 uM relative to control
# [2] = biological target: Melanocortin receptor 4 (Homo sapiens) (UniProt P32245); assay: Inhibition of human MC4 receptor at 1 uM relative to control
# Melanocortin receptor 4 (Homo sapiens), sequence (P32245 whole entry): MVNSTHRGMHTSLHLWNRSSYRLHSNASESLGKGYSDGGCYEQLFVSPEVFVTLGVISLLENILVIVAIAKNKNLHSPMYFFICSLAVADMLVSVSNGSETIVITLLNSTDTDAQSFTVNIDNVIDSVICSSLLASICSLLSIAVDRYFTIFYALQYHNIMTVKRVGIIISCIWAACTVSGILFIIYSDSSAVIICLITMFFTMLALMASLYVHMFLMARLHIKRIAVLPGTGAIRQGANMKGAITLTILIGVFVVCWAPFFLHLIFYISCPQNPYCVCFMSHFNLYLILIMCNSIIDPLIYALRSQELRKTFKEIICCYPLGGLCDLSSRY
# [3] = biological target: Histamine H2 receptor (Homo sapiens) (UniProt P25021); assay: Inhibition of human histamine H2 receptor at 1 uM relative to control
# [4] = biological target: Sodium-dependent dopamine transporter (Homo sapiens) (UniProt Q01959); assay: Inhibition of human dopamine transporter at 1 uM relative to control
# Sodium-dependent dopamine transporter (Homo sapiens), sequence (Q01959 whole entry): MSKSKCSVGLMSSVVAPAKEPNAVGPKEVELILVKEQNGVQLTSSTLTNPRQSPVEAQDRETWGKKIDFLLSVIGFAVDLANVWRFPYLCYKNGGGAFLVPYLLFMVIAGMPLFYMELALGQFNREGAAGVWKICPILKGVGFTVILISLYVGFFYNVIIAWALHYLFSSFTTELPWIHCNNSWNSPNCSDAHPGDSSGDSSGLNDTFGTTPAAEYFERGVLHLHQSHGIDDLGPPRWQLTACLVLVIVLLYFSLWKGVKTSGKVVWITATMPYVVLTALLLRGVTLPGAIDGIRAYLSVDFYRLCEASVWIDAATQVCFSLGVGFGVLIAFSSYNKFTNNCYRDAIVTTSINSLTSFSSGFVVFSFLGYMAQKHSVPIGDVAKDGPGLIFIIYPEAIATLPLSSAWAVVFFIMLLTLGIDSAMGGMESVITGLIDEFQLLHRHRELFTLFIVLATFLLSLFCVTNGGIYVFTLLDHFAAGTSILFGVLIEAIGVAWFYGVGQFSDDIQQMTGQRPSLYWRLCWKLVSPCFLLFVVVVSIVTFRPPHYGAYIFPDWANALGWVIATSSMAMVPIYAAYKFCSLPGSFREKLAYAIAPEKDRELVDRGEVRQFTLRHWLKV
# [5] = biological target: Melatonin receptor type 1A (Homo sapiens) (UniProt P48039); assay: Inhibition of human MT1 receptor at 1 uM relative to control
# [6] = biological target: Beta-2 adrenergic receptor (Homo sapiens) (UniProt P07550); assay: Inhibition of human beta2 receptor at 1 uM relative to control
# [7] = biological target: Neuropeptide Y receptor type 1 (Homo sapiens) (UniProt P25929); assay: Inhibition of human Y1 receptor at 1 uM relative to control
# [8] = biological target: Cholecystokinin receptor type A (Homo sapiens) (UniProt P32238); assay: Inhibition of human CCK1 receptor at 1 uM relative to control
# [9] = Cmax in rat at 20 mg/kg, po; type: ADME, organism-based; design: dose 20 mg/kg, route oral; settings: in vivo
# [10] = biological target: D(2) dopamine receptor (Homo sapiens) (UniProt P14416); assay: Inhibition of human dopamine D2S receptor at 1 uM relative to control
# [11] = biological target: Bifunctional epoxide hydrolase 2 (Rattus norvegicus, UniProt P80299)
# [12] = biological target: T1, Bifunctional epoxide hydrolase 2 (Homo sapiens, UniProt P34913)
# T1 sequence (P34913 whole entry): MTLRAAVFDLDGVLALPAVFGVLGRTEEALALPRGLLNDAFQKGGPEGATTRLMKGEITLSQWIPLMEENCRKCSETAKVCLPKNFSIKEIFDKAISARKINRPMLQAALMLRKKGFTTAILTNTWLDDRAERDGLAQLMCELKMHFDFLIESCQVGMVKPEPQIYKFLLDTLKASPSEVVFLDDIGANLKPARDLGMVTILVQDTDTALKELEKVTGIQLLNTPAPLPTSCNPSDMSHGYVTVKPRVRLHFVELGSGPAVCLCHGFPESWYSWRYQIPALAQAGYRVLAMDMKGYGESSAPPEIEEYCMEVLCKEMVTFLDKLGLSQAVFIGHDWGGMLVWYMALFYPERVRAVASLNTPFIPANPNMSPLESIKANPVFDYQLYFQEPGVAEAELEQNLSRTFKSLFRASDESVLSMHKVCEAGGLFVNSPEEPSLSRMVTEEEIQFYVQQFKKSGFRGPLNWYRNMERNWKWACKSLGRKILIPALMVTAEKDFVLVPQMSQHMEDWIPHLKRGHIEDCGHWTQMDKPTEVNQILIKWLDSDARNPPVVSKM
# Description: Inhibition of human soluble epoxide hydrolase using PHOME as substrate assessed as formation of 6-methoxy-2-naphthaldehyde incubated for 10 mins prior to substrate addition measured with in 30 mins by fluorescence assay
# [13] = Plasma clearance in rat at 2 mg/kg, iv; type: ADME, organism-based; design: dose 2 mg/kg, route intravenous
# [14] = biological target: Adenosine receptor A2a (Homo sapiens) (UniProt P29274); assay: Inhibition of human adenosine A2A receptor at 1 uM relative to control
# Homo sapiens [15] = species: Homo sapiens; assay: Inhibition of human BZD receptor at 1 uM relative to control
# [16] = biological target: Voltage-dependent L-type calcium channel subunit alpha-1C (Homo sapiens, UniProt Q13936); assay: Inhibition of CaV1.2 (unknown origin)
# Voltage-dependent L-type calcium channel subunit alpha-1C, sequence (Q13936 whole entry): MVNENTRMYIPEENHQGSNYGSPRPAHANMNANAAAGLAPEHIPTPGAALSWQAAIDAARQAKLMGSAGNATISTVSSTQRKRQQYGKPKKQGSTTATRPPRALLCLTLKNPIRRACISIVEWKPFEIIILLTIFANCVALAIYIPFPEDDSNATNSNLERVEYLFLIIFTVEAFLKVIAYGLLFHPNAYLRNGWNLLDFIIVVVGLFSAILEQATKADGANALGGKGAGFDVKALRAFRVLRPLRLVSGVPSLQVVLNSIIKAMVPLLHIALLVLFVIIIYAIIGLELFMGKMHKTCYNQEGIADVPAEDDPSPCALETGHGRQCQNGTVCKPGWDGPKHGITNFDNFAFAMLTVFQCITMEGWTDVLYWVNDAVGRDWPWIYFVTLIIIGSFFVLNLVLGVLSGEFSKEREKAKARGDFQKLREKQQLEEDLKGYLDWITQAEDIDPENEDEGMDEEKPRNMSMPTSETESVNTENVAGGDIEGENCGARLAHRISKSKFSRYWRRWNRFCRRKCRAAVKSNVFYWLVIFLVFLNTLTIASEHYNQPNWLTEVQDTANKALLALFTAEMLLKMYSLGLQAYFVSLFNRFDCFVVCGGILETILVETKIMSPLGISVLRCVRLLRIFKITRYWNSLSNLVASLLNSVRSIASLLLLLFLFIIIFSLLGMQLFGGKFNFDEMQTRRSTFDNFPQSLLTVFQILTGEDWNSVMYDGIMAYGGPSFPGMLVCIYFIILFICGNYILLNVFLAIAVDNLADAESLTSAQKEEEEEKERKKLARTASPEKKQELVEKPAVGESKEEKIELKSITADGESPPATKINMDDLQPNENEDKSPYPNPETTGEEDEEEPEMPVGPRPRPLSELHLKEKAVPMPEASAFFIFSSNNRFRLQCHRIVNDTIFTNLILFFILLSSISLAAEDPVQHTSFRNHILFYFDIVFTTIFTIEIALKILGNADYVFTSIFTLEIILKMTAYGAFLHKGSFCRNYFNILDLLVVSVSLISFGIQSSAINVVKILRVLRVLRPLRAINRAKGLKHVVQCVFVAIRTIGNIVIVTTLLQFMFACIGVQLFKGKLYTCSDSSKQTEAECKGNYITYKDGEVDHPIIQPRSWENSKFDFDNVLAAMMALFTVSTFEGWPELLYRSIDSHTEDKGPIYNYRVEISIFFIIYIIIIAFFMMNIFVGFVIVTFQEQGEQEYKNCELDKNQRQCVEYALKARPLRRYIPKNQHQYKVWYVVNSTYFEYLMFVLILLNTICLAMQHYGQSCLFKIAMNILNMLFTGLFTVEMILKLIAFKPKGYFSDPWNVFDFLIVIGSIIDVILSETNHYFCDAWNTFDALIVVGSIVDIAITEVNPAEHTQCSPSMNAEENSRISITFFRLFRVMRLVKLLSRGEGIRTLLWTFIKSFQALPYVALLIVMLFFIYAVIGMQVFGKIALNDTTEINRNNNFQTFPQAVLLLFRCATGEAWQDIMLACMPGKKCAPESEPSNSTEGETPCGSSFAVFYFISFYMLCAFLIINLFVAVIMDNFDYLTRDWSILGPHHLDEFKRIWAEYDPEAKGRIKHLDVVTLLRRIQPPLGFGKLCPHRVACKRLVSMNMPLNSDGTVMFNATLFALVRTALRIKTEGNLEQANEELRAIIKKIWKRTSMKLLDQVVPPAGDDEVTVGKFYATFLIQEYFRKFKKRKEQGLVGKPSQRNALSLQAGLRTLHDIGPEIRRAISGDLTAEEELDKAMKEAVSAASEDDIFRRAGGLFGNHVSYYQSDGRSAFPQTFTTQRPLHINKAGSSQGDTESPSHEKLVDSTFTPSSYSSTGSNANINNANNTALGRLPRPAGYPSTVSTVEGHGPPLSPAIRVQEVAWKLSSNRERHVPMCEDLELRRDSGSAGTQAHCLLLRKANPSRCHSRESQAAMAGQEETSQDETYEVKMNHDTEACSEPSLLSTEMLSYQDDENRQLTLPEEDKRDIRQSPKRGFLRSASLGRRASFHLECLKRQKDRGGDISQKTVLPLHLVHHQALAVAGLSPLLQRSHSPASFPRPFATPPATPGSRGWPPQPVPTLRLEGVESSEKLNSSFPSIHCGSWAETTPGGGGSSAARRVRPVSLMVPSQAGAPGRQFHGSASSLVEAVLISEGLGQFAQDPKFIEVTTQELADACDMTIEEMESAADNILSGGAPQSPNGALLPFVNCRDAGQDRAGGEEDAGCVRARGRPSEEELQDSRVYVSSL
# [17] = biological target: 5-hydroxytryptamine receptor 1A (Homo sapiens) (UniProt P08908); assay: Inhibition of human 5-HT1A receptor at 1 uM relative to control
# [18] = Plasma clearance in rat at 1 mg/kg, iv; type: ADME, organism-based; design: dose 1 mg/kg, route intravenous
# [19] = biological target: 5-hydroxytryptamine receptor 2A (Homo sapiens) (UniProt P28223); assay: Inhibition of human 5-HT2A receptor at 1 uM relative to control
# [20] = Cmax in rat at 2 mg/kg, po; type: ADME, organism-based; design: dose 2 mg/kg, route oral; settings: in vivo
# Rattus norvegicus [21] = assay: Free maximum concentration of drug in rat at 20 mg/kg, po; type: ADME, organism-based; design: dose 20 mg/kg, route oral; settings: in vivo
# [22] = biological target: Kappa-type opioid receptor (Homo sapiens) (UniProt P41145); assay: Inhibition of human kappa opioid receptor at 1 uM relative to control
# [23] = Oral bioavailability in rat; type: ADME, organism-based; settings: in vivo
# Rattus norvegicus [24] = assay: In vivo inhibition of soluble epoxide hydrolase in rat assessed as increase in leukotoxin/leukotoxin diol ratio in plasma at 0.2 to 20 mg/kg, po measured after 4 hrs relative to vehicle-treated control; type: functional; settings: dose mg/kg 0.2-20
# [25] = biological target: Sodium channel protein type 5 subunit alpha (Homo sapiens, UniProt Q14524); assay: Inhibition of NaV1.5 (unknown origin)
# Rattus norvegicus [26] = assay: Free maximum concentration of drug in rat at 2 mg/kg, po; type: ADME, organism-based; design: dose 2 mg/kg, route oral; settings: in vivo
# [27] = biological target: 5-hydroxytryptamine receptor 1B (Homo sapiens) (UniProt P28222); assay: Inhibition of human 5-HT1B receptor at 1 uM relative to control
# 5-hydroxytryptamine receptor 1B (Homo sapiens), sequence (P28222 whole entry): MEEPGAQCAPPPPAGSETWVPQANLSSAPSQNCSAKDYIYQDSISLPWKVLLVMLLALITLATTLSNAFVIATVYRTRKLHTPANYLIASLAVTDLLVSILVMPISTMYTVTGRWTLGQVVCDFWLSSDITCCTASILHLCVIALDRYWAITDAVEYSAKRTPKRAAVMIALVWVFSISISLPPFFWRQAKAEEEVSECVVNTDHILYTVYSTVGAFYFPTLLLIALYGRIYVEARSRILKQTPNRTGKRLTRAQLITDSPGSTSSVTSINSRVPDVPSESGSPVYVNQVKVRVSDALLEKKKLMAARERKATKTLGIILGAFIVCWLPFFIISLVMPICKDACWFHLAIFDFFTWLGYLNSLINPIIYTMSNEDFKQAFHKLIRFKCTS
# [28] = biological target: Galanin receptor type 2 (Homo sapiens) (UniProt O43603); assay: Inhibition of human GAL2 receptor at 1 uM relative to control
# [29] = biological target: T1, Bifunctional epoxide hydrolase 2; remark: listed apart in the source
# Description: Inhibition of human soluble epoxide hydrolase overexpressed in HEK293F cells using EET as substrate assessed as formation of DHET incubated for 30 mins prior to substrate addition measured after 60 mins by ELISA
# Epoxide hydrolase 1 = Epoxide hydrolase 1 (Homo sapiens, UniProt P07099)
# Epoxide hydrolase 1, sequence (P07099 whole entry): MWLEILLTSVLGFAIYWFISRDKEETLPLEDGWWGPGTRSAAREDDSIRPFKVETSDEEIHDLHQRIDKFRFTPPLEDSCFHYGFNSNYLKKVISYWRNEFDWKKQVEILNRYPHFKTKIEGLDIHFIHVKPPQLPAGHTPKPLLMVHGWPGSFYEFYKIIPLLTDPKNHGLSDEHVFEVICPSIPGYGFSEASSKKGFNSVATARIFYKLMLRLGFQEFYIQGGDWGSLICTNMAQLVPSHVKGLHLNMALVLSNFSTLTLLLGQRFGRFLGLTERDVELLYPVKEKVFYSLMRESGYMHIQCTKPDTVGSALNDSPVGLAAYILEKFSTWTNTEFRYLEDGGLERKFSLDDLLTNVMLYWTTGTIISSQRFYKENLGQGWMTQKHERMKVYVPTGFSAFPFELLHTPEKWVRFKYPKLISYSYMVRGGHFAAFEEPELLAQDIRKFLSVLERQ
# Rattus norvegicus [30] = assay: Free maximum concentration of drug in rat at 0.2 mg/kg, po; type: ADME, organism-based; design: dose 0.2 mg/kg, route oral; settings: in vivo
# [31] = biological target: 5-hydroxytryptamine receptor 7 (Homo sapiens) (UniProt P34969); assay: Inhibition of human 5-HT7 receptor at 1 uM relative to control
# Homo sapiens [32] = species: Homo sapiens; assay: Inhibition of human P2X receptor at 1 uM relative to control
# [33] = biological target: Muscarinic acetylcholine receptor M2 (Homo sapiens) (UniProt P08172); assay: Inhibition of human M2 receptor at 1 uM relative to control
# Muscarinic acetylcholine receptor M2 (Homo sapiens), sequence (P08172 whole entry): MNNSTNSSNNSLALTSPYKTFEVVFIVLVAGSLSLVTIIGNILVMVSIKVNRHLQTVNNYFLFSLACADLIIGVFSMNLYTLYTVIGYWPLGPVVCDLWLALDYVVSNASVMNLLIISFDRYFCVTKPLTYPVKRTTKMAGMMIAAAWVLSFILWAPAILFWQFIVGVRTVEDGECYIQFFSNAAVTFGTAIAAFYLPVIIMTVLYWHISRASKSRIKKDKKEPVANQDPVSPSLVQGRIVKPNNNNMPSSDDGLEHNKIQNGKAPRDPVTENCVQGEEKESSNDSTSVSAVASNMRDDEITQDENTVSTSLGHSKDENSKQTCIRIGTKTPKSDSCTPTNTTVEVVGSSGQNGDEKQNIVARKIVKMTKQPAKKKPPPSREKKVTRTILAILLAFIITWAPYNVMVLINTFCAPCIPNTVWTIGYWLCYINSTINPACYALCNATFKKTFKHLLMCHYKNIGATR
# [34] = biological target: Vasopressin V1a receptor (Homo sapiens) (UniProt P37288); assay: Inhibition of human vasopressin V1a receptor at 1 uM relative to control
# Vasopressin V1a receptor (Homo sapiens), sequence (P37288 whole entry, looked up): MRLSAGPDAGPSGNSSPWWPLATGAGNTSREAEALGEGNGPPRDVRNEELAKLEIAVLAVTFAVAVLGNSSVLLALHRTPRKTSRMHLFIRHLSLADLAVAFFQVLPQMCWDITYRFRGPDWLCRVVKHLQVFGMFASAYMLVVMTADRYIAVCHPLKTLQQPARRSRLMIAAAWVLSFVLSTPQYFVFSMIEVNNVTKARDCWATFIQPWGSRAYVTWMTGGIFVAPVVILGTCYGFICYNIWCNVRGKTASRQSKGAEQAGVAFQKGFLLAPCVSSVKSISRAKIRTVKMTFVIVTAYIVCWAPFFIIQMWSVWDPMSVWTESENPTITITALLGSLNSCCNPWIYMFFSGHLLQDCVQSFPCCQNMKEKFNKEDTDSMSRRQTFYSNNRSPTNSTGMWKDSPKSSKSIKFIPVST
# [35] = biological target: D(1A) dopamine receptor (Homo sapiens) (UniProt P21728); assay: Inhibition of human dopamine D1 receptor at 1 uM relative to control
# [36] = Half life in rat at 2 mg/kg, iv; type: ADME, organism-based; design: dose 2 mg/kg, route intravenous; settings: in vivo
# [37] = biological target: 5-hydroxytryptamine receptor 6 (Homo sapiens) (UniProt P50406); assay: Inhibition of human 5-HT6 receptor at 1 uM relative to control
# [38] = biological target: 5-hydroxytryptamine receptor 3A (Homo sapiens) (UniProt P46098); assay: Inhibition of human 5-HT3 receptor at 1 uM relative to control
# Rattus norvegicus [39] = assay: Dose normalized AUC in rat at 2 mg/kg, iv; type: ADME, organism-based; design: dose 2 mg/kg, route intravenous; settings: in vivo
# [40] = Cmax in rat at 0.2 mg/kg, po; type: ADME, organism-based; design: dose 0.2 mg/kg, route oral; settings: in vivo
# [41] = biological target: Muscarinic acetylcholine receptor M4 (Homo sapiens) (UniProt P08173); assay: Inhibition of human M4 receptor at 1 uM relative to control
# [42] = biological target: Sodium-dependent noradrenaline transporter (Homo sapiens) (UniProt P23975); assay: Inhibition of human norepinephrine transporter at 1 uM relative to control
structure (smiles),measurement,setting,value
CNc1nc(C)nc(N2CCC(C(=O)NCc3ccc(Br)cc3OC(F)(F)F)CC2)n1,inhibition,[1],< 50%
same,inhibition,[2],< 50%
same,inhibition,[3],< 50%
same,inhibition,[4],< 50%
same,inhibition,[5],< 50%
same,inhibition,[6],< 50%
same,inhibition,[7],< 50%
same,inhibition,[8],< 50%
same,Cmax,[9],1490 nM
same,inhibition,[10],< 50%
same,IC50,[11],2 nM
same,IC50,[12],0.5 nM
same,clearance,[13],12 mL/min/kg
same,inhibition,[14],< 50%
same,inhibition,Homo sapiens [15],< 50%
same,IC50,[16],> 10000 nM
same,inhibition,[17],< 50%
same,clearance,[18],12 mL/min/kg
same,inhibition,[19],< 50%
same,Cmax,[20],223 nM
same,fCmax,Rattus norvegicus [21],24 nM
same,inhibition,[22],< 50%
same,bioavailability,[23],100%
same,inhibition (INH),Rattus norvegicus [24],50%
same,IC50,[25],> 10000 nM
same,fCmax,Rattus norvegicus [26],3 nM
same,inhibition,[27],< 50%
same,inhibition,[28],< 50%
same,IC50,[29],3 nM
same,IC50,Epoxide hydrolase 1,> 50000 nM
same,fCmax,Rattus norvegicus [30],0.25 nM
same,inhibition,[31],< 50%
same,inhibition,Homo sapiens [32],< 50%
same,inhibition,[33],< 50%
same,inhibition,[34],< 50%
same,inhibition,[35],< 50%
same,half-life,[36],4.6 h
same,inhibition,[37],< 50%
same,inhibition,[38],< 50%
same,AUC/dose,Rattus norvegicus [39],1.3 kg·h/L
same,Cmax,[40],16 nM
same,inhibition,[41],< 50%
same,inhibition,[42],< 50%
